Here are results for four compounds from ChEMBL document CHEMBL1147395, “Three New Toxic Pinolidoxins from Ascochyta pinodes” (J Nat Prod, 1993).

Molecules are shown by their SMILES. Active and inactive are the calls of the source. The calls are words filed in the database; no cut-off is given here.

In one data set the test system is Geotrichum candidum. In words: Antifungal activity against Geotrichum candidum up to 120 ug/ml. Format: functional, organism-based.
The next data set relates to Fabaceae. In words: Phytotoxicity against beans leaves assessed as necrotic lesion at 15 ug/15 ul after 48 hrs by leaf puncture assay. Format: functional, organism-based.
The subject of another data set is Pisum sativum. Put plainly: Phytotoxicity against pea leaves assessed as necrotic lesion at 15 ug/15 ul after 48 hrs by leaf puncture assay. Format: functional, organism-based. The conditions noted are these: Lathyrus oleraceus.
Data set [1] has as its system Artemia salina. Put plainly: Toxicity in Artemia salina at 5 ug/ml. Format: organism-based. The conditions noted are these: in vivo.
Data set [2] concerns Artemia salina. Put plainly: Toxicity in Artemia salina at 50 ug/ml. Format: organism-based. The conditions noted are these: in vivo.

Consider `C/C=C/C=C/C(=O)O[C@H]1CCCC[C@H](O)[C@H](O)[C@@H](CCC)OC1=O`, for which, in the data set on Geotrichum candidum, the result was inactive. Besides, the Activity result in the data set on Fabaceae was “Toxic”; with Pisum sativum it was “Toxic”; in the data set on Artemia salina [1] it was “Non-toxic”.

As for `C/C=C/C=C/C(=O)O[C@H]1CC/C=C/[C@H](O)[C@H](O)[C@@H](CCC)OC1=O` [PINOLIDOXIN], in the data set on Geotrichum candidum, the outcome was inactive. The Activity entry with Artemia salina [1] was “Non-toxic”.

`C/C=C/C=C/C(=O)O[C@H]1CC/C=C/[C@@H](O)[C@H](O)[C@@H](CCC)OC1=O`: in the data set with Geotrichum candidum, the outcome was inactive. The Activity entry was “Toxic” in the data set with Fabaceae, “Toxic” with Artemia salina [2], “Toxic” in the data set with Pisum sativum and “Non-toxic” with Artemia salina [1].

In the case of `C/C=C/C=C/C(=O)O[C@H]1CCC2OC2[C@H](O)[C@H](O)[C@@H](CCC)OC1=O` (some centres undefined), the result with Geotrichum candidum was inactive. Besides, the results for the Activity entry in the data set on Artemia salina [2] and with Artemia salina [1] were “Toxic” and “Non-toxic”, respectively.
